Reference: patent publication US20100152434A1, “Protein Kinase-binding Nucleosides and Associated Methods” (priority 2007, published 2010)
Where two headings read alike, the source gives them in different places.

Experiments:
[1] = test system: CAKI-1; assay: cells; conditions: Homo sapiens, CAKI-1, 48 h
[2] = test system: NCI-H522; assay: cells; conditions: Homo sapiens, NCI-H522, 48 h
[3] = test system: NCI-H226
[4] = test system: OVCAR-5; assay: cells; conditions: Homo sapiens, OVCAR-5, 48 h
[5] = test system: MDA-MB-231/ATCC; assay: cells; conditions: Homo sapiens, MDA-MB-231, 48 h
[6] = test system: OVCAR-4
[7] = test system: A498
[8] = test system: SNB-75; assay: cells; conditions: Homo sapiens, SNB-75, 48 h
[9] = test system: NCI-H460; assay: cells; conditions: Homo sapiens, NCI-H460, 48 h
[10] = test system: SN12C
[11] = test system: RXF 393; assay: cells; conditions: Homo sapiens, RXF 393, 48 h
[12] = test system: RXF 393; conditions: RXF 393
[13] = test system: SK-OV-3
[14] = test system: HCT-116
[15] = test system: NCI-H226; assay: cells; conditions: Homo sapiens, NCI-H226, 48 h
[16] = test system: SNB-75
[17] = test system: EKVX; assay: cells; conditions: Homo sapiens, 48 h
[18] = test system: SNB-19; assay: cells; conditions: Homo sapiens, SNB-19, 48 h
[19] = test system: IGROV1
[20] = test system: NCI-H23; assay: cells; conditions: Homo sapiens, NCI-H23, 48 h
[21] = test system: T-47D
[22] = test system: M14; assay: cells; conditions: Homo sapiens, M14, 48 h
[23] = test system: LOX IMVI
[24] = test system: MALME-3M
[25] = test system: BT-549; assay: cells; conditions: Homo sapiens, BT-549, 48 h
[26] = test system: MDA-MB-435; conditions: MDA-MB-435
[27] = Log10 Concentration −4.0, Molar
[28] = Log10 Concentration −5.0, Molar
[29] = Log10 Concentration −6.0, Molar
[30] = Log10 Concentration −7.0, Molar
[31] = Log10 Concentration −8.0, Molar

CCOC(=O)C[C@@H]1C(O[Si](C)(C)C(C)(C)C)[C@H](n2cnc3c(NC(=O)Nc4ccccc4)ncnc32)O[C@@H]1CNC(=O)NC (some centres unmarked) [Compound 10]
GI50 [1]: 29.7 µM | CC50 ([1]; read-out: LC50): > 100 µM | GI50 [2]: 4.36 µM | CC50 ([2]; read-out: LC50): > 100 µM | TGI ([3]; 48 h): >1.00E−4 Molar | Percent Growth [3, 27]: 55% | Percent Growth [3, 28]: 71% | Percent Growth [3, 29]: 102% | Percent Growth [3, 30]: 105% | Percent Growth [3, 31]: 101% | GI50 [4]: 31.1 µM | CC50 ([4]; read-out: LC50): > 100 µM | GI50 [5]: 3.96 µM | CC50 ([5]; read-out: LC50): > 100 µM | TGI ([6]; 48 h): >1.00E−4 Molar | Percent Growth [6, 27]: 16% | Percent Growth [6, 28]: 53% | Percent Growth [6, 29]: 95% | Percent Growth [6, 30]: 103% | Percent Growth [6, 31]: 98% | TGI ([7]; 48 h): 1.71E−5 Molar | Percent Growth [7, 27]: −41% | Percent Growth [7, 28]: 13% | Percent Growth [7, 29]: 91% | Percent Growth [7, 30]: 92% | Percent Growth [7, 31]: 95% | GI50 [8]: 4.56 µM | CC50 ([8]; read-out: LC50): > 100 µM | GI50 [9]: 5.54 µM | CC50 ([9]; read-out: LC50): > 100 µM | TGI ([10]; 48 h): >1.00E−4 Molar | Percent Growth [10, 27]: 11% | Percent Growth [10, 28]: 48% | Percent Growth [10, 29]: 103% | Percent Growth [10, 30]: 101% | Percent Growth [10, 31]: 101% | GI50 [11]: 2.01 µM | CC50 ([11]; read-out: LC50): 19.5 µM | TGI ([12]; 48 h): 4.63E−6 Molar | Percent Growth [12, 27]: −59% | Percent Growth [12, 28]: −46% | Percent Growth [12, 29]: 92% | Percent Growth [12, 30]: 97% | Percent Growth [12, 31]: 99% | TGI ([13]; 48 h): >1.00E−4 Molar | Percent Growth [13, 27]: 16% | Percent Growth [13, 28]: 66% | Percent Growth [13, 29]: 90% | Percent Growth [13, 30]: 96% | Percent Growth [13, 31]: 96% | TGI ([14]; 48 h): 1.61E−5 Molar | Percent Growth [14, 27]: −88% | Percent Growth [14, 28]: 23% | Percent Growth [14, 29]: 78% | Percent Growth [14, 30]: 113% | Percent Growth [14, 31]: 93% | GI50 [15]: > 100 µM | CC50 ([15]; read-out: LC50): > 100 µM | TGI ([16]; 48 h): >1.00E−4 Molar | Percent Growth [16, 27]: 22% | Percent Growth [16, 28]: 32% | Percent Growth [16, 29]: 85% | Percent Growth [16, 30]: 90% | Percent Growth [16, 31]: 92% | GI50 [17]: 17.7 µM | CC50 ([17]; read-out: LC50): > 100 µM | GI50 [18]: 29 µM | CC50 ([18]; read-out: LC50): > 100 µM | TGI ([19]; 48 h): 1.80E−5 Molar | Percent Growth [19, 27]: −58% | Percent Growth [19, 28]: 20% | Percent Growth [19, 29]: 93% | Percent Growth [19, 30]: 94% | Percent Growth [19, 31]: 94% | GI50 [20]: 33.3 µM | CC50 ([20]; read-out: LC50): > 100 µM | TGI ([21]; 48 h): >1.00E−4 Molar | Percent Growth [21, 27]: 13% | Percent Growth [21, 28]: 16% | Percent Growth [21, 29]: 73% | Percent Growth [21, 30]: 89% | Percent Growth [21, 31]: 91% | GI50 [22]: 2.51 µM | CC50 ([22]; read-out: LC50): 78.6 µM | TGI ([23]; 48 h): >1.00E−4 Molar | Percent Growth [23, 27]: 4% | Percent Growth [23, 28]: 35% | Percent Growth [23, 29]: 93% | Percent Growth [23, 30]: 97% | Percent Growth [23, 31]: 97% | TGI ([24]; 48 h): >1.00E−4 Molar | Percent Growth [24, 27]: 17% | Percent Growth [24, 28]: 50% | Percent Growth [24, 29]: 92% | Percent Growth [24, 30]: 95% | Percent Growth [24, 31]: 104% | GI50 [25]: > 100 µM | CC50 ([25]; read-out: LC50): > 100 µM | TGI ([26]; 48 h): >1.00E−4 Molar | Percent Growth [26, 27]: 8% | Percent Growth [26, 28]: 40% | Percent Growth [26, 29]: 89% | Percent Growth [26, 30]: 92% | Percent Growth [26, 31]: 95%
